Experiments:
glucocorticoid receptor [1] = biological target: T1, glucocorticoid receptor (Rattus norvegicus, UniProt P06536); test: competition with [3H]-triamcinolone acetonide, sucrose gradient centrifugation (weak; no effect at […]); details: read-out: % [3H]-triamcinolone acetonide bound at 5 umol/l
T1 construct: gene Nr3c1; native receptor in R3230AC tumour cytosol (8-9 S component)
T1 sequence (P06536 1-795): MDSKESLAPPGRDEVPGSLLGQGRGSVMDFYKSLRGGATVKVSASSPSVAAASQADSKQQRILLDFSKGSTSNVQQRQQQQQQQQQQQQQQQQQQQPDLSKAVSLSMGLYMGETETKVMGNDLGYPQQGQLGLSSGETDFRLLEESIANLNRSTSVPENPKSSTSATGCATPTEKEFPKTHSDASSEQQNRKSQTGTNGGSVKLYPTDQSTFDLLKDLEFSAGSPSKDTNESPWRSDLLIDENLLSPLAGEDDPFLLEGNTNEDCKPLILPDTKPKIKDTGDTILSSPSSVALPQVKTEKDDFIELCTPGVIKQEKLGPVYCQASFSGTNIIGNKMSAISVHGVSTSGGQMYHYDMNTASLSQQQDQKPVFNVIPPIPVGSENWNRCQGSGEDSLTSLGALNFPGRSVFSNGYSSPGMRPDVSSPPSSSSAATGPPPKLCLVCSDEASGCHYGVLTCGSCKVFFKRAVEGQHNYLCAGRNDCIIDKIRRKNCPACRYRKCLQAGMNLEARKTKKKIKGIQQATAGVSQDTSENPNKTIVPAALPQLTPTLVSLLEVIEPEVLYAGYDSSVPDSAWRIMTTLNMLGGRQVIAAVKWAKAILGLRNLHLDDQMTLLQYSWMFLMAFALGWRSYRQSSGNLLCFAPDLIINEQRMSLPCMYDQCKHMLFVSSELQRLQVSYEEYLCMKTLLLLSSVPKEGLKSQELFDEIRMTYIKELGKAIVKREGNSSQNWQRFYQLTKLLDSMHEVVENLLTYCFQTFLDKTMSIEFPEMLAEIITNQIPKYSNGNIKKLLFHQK

glucocorticoid receptor [2] = biological target: T1, glucocorticoid receptor; test: competition with [3H]-triamcinolone acetonide, sucrose gradient centrifugation; details: read-out: % [3H]-triamcinolone acetonide bound at 1 umol/l
glucocorticoid receptor [3] = biological target: T1, glucocorticoid receptor; test: as above; details: read-out: % [3H]-triamcinolone acetonide bound at 5 umol/l

For `C[C@]12CC[C@@H]3c4ccc(O)cc4CC[C@H]3[C@@H]1CC[C@@H]2O` [Oestradiol-17β], which activity at 5 µM (glucocorticoid receptor [1]) is on record?
Its activity at 5 µM is 45%.

How did the activity at 1 µM (glucocorticoid receptor [2]) turn out when `C[C@]12C=CC(=O)C=C1CC[C@H]1[C@@H]3C[C@@H](O)[C@](O)(C(=O)CO)[C@@]3(C)C[C@H](O)[C@@]12F` [Triamcinolone] was run?
Its activity at 1 µM is 14%.

For `C[C@]12CCC(=O)C=C1CC[C@@H]1[C@@H]2CC[C@@]2(C)[C@H]1CC[C@]2(O)C(=O)CO` [cortexolone], which activity at 5 µM (glucocorticoid receptor [3]) is on record?
The activity at 5 µM was 25%.

— PMC2008813 (British Journal of Cancer, 1973)
